# Target: T1, MKNK2 (MNK2) (Homo sapiens, UniProt Q9HBH9)
# T1 construct: purchased Thermo Fisher Scientific (Life Technologies) SelectScreen
# Experiment: SelectScreen LanthaScreen
# Type: binding
# Conditions: read-out: % displacement
# In short: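 NU5455 was profiled across the SelectScreen Broad panel of kinase activity and binding assays. Z'LYTE reactions such as CSF1R ran at apparent Km ATP, while the Adapta CAMK1 assay used ATP listed as 10. Values are given as percent.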
# T1 sequence (Q9HBH9 whole entry): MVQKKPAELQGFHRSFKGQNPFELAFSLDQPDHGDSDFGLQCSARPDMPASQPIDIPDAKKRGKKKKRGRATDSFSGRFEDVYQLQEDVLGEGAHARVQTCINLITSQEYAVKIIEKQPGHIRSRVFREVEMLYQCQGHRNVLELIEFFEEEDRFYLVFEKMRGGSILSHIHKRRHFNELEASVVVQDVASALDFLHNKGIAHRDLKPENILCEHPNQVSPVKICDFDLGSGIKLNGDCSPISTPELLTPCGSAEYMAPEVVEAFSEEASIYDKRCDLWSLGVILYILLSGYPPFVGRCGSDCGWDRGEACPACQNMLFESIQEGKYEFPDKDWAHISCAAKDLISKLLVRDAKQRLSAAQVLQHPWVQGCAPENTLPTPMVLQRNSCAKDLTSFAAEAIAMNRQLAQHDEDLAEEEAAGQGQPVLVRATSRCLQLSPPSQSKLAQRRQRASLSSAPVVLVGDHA
structure (smiles),measurement,value
CN(C(=O)CN1CCOCC1)c1ccc2sc3c(-c4cccc5c(=O)cc(N6CC7CCC(C6)O7)oc45)cccc3c2c1 [NU5455],inhibition at 1 µM,0.2%
